Patent US7872014B2, “Anaplastic lymphoma kinase modulators and methods of use” (Exelixis, Inc., priority 2003, dated 2011)

molecular target: T1, ALK (baculovirus expressed human ALK kinase domain F1098-K1410) (Homo sapiens, UniProt Q9UM73); assay: Luciferase-Coupled Chemiluminescent Kinase assay (LCCA), ALK biochemical activity; conditions: inhibition of ALK; mean values; 1 μM ATP, 4 μM poly-AEKY, 12 nM ALK, 2 hours ambient temperature
T1 construct: baculovirus expressed human ALK kinase domain F1098-K1410; made in house
Summary of the method: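 Luciferase-coupled readout of ATP remaining after reaction of 12 nM ALK kinase domain with 1 μM ATP and 4 μM poly-AEKY, Tris-HCl pH 7.5 buffer with MgCl2 and MnCl2. Incubated 2 h at ambient temperature; inhibition derived from ATP consumption across serial compound dilutions.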

T1 sequence (Q9UM73 1098-1410): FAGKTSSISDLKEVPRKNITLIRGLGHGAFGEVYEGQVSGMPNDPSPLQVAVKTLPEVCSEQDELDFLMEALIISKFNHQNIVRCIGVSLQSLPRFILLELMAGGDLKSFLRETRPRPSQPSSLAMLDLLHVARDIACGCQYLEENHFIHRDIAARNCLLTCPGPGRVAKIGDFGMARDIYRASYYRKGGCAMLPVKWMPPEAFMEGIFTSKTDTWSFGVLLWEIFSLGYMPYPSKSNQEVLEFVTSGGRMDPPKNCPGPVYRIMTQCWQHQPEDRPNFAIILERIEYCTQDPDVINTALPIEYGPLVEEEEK

SMILES	IC50
Cc1n[nH]c2nc(-c3ccc4[nH]ccc4c3)c3c(F)cc(O)c(F)c3c12 [Example 191, 6,9-difluoro-5-(1H-indol-5-yl)-1-methyl-3H-pyrazolo[3,4-c]isoquinolin-8-ol]	100 to 999 nM
Cc1n[nH]c2nc(-c3ccc(N)cc3)c3c(F)cc(O)c(F)c3c12 [Example 193, 5-(4-aminophenyl)-6,9-difluoro-1-methyl-3H-pyrazolo[3,4-c]isoquinolin-8-ol]	1000 to 2000 nM
COc1c(OCCN2CCN(C)CC2)cc2c(c(-c3ccc(O)c(Cl)c3)nc3[nH]nc(C)c32)c1F [Example 194, 2-chloro-4-(6-fluoro-1-methyl-7-(methyloxy)-8-{[2-(4-methylpiperazin-1-yl)ethyl]oxy}-3H-pyrazolo[3,4-c]isoquinolin-5-yl)phenol]	≤ 99 nM
Cc1n[nH]c2nc(-c3cnc(N)s3)c3c(F)cc(O)c(F)c3c12 [Example 195, 5-(2-amino-1,3-thiazol-5-yl)-6,9-difluoro-1-methyl-3H-pyrazolo[3,4-c]isoquinolin-8-ol]	≤ 99 nM
CCN1CCN(CCOc2cc(F)c3c(-c4ccc(O)c(Cl)c4)nc4[nH]nc(C)c4c3c2OC)CC1 [Example 196, 2-chloro-4-[8-{[2-(4-ethylpiperazin-1-yl)ethyl]oxy}-6-fluoro-1-methyl-9-(methyloxy)-3H-pyrazolo[3,4-c]isoquinolin-5-yl]phenol]	≤ 99 nM
COc1c(OCCN2CCN(C)CC2)cc(F)c2c(-c3ccc(O)c(Cl)c3)nc3[nH]nc(C)c3c12 [Example 197, 2-chloro-4-(6-fluoro-1-methyl-9-(methyloxy)-8-{[2-(4-methylpiperazin-1-yl)ethyl]oxy}-3H-pyrazolo[3,4-c]isoquinolin-5-yl)phenol]	≤ 99 nM
Cc1n[nH]c2nc(-c3ccc(N)nc3)c3c(F)cc(O)c(F)c3c12 [Example 198, 5-(6-aminopyridin-3-yl)-6,9-difluoro-1-methyl-3H-pyrazolo[3,4-c]isoquinolin-8-ol]	> 2000 nM
Cc1n[nH]c2nc(-c3ccc(N)s3)c3c(F)cc(O)c(F)c3c12 [Example 199, 5-(5-amino-2-thienyl)-6,9-difluoro-1-methyl-3H-pyrazolo[3,4-c]isoquinolin-8-ol]	100 to 999 nM
CCN1CCN(CCCOc2cc(F)c3c(-c4ccc(O)c(Cl)c4)nc4[nH]nc(C)c4c3c2OC)CC1 [Example 200, 2-chloro-4-[8-{[3-(4-ethylpiperazin-1-yl)propyl]oxy}-6-fluoro-1-methyl-9-(methyloxy)-3H-pyrazolo[3,4-c]isoquinolin-5-yl]phenol]	≤ 99 nM
COc1c(OCCCN2CCN(C)CC2)cc(F)c2c(-c3ccc(O)c(Cl)c3)nc3[nH]nc(C)c3c12 [Example 201, 2-chloro-4-(6-fluoro-1-methyl-9-(methyloxy)-8-{[3-(4-methylpiperazin-1-yl)propyl]oxy}-3H-pyrazolo[3,4-c]isoquinolin-5-yl)phenol]	≤ 99 nM
Cc1n[nH]c2nc(-c3ccc4cc[nH]c4c3)c3c(F)cc(O)c(F)c3c12 [Example 202, 6,9-difluoro-5-(1H-indol-6-yl)-1-methyl-3H-pyrazolo[3,4-c]isoquinolin-8-ol]	> 2000 nM
CC(=O)Nc1ncc(-c2nc3[nH]nc(C)c3c3c(F)c(O)cc(F)c23)s1 [Example 203, N-[5-(6,9-difluoro-8-hydroxy-1-methyl-3H-pyrazolo[3,4-c]isoquinolin-5-yl)-1,3-thiazol-2-yl]acetamide]	1000 to 2000 nM
COc1c(OCCN2CCOCC2)cc(F)c2c(-c3ccc(O)c(Cl)c3)nc3[nH]nc(C)c3c12 [Example 206, 2-chloro-4-{6-fluoro-1-methyl-9-(methyloxy)-8-[(2-morpholin-4-ylethyl)oxy]-3H-pyrazolo[3,4-c]isoquinolin-5-yl}phenol]	≤ 99 nM
CCCCN(CC)CCOc1cc(F)c2c(-c3ccc(O)c(Cl)c3)nc3[nH]nc(C)c3c2c1OC [Example 207, 4-[8-({2-[butyl(ethyl)amino]ethyl}oxy)-6-fluoro-1-methyl-9-(methyloxy)-3H-pyrazolo[3,4-c]isoquinolin-5-yl]-2-chlorophenol]	≤ 99 nM
COc1c(OC[C@H](N)C(C)C)cc(F)c2c(-c3ccc(O)c(Cl)c3)nc3[nH]nc(C)c3c12 [Example 208, 4-[8-{[(2R)-2-amino-3-methylbutyl]oxy}-6-fluoro-1-methyl-9-(methyloxy)-3H-pyrazolo[3,4-c]isoquinolin-5-yl]-2-chlorophenol]	≤ 99 nM
COc1c(OCCC2CCN(C)CC2)cc(F)c2c(-c3ccc(O)c(Cl)c3)nc3[nH]nc(C)c3c12 [Example 209, 2-chloro-4-(6-fluoro-1-methyl-9-(methyloxy)-8-{[2-(1-methylpiperidin-4-yl)ethyl]oxy}-3H-pyrazolo[3,4-c]isoquinolin-5-yl)phenol]	≤ 99 nM
CCN1CCC(COc2cc(F)c3c(-c4ccc(O)c(Cl)c4)nc4[nH]nc(C)c4c3c2OC)CC1 [Example 210, 2-chloro-4-[8-{[(1-ethylpiperidin-4-yl)methyl]oxy}-6-fluoro-1-methyl-9-(methyloxy)-3H-pyrazolo[3,4-c]isoquinolin-5-yl]phenol]	≤ 99 nM
Cc1n[nH]c2nc(-c3nnc(N)s3)c3c(F)cc(O)c(F)c3c12 [Example 212, 5-(5-amino-1,3,4-thiadiazol-2-yl)-6,9-difluoro-1-methyl-3H-pyrazolo[3,4-c]isoquinolin-8-ol]	100 to 999 nM
COc1c(OC[C@H](N)C(C)(C)C)cc(F)c2c(-c3ccc(O)c(Cl)c3)nc3[nH]nc(C)c3c12 [Example 213, 4-[8-{[(2R)-2-amino-3,3-dimethylbutyl]oxy}-6-fluoro-1-methyl-9-(methyloxy)-3H-pyrazolo[3,4-c]isoquinolin-5-yl]-2-chlorophenol]	≤ 99 nM
COc1c(OCCN2CCN(CC(C)C)CC2)cc(F)c2c(-c3ccc(O)c(Cl)c3)nc3[nH]nc(C)c3c12 [Example 214, 2-chloro-4-[6-fluoro-1-methyl-9-(methyloxy)-8-({2-[4-(2-methylpropyl)piperazin-1-yl]ethyl}oxy)-3H-pyrazolo[3,4-c]isoquinolin-5-yl]phenol]	≤ 99 nM
CCN1CC2CC1CN2CCOc1cc(F)c2c(-c3ccc(O)c(Cl)c3)nc3[nH]nc(C)c3c2c1OC (stereo not drawn) [Example 215, 2-chloro-4-[8-{[2-(5-ethyl-2,5-diazabicyclo[2.2.1]hept-2-yl)ethyl]oxy}-6-fluoro-1-methyl-9-(methyloxy)-3H-pyrazolo[3,4-c]isoquinolin-5-yl]phenol]	≤ 99 nM
COc1c(OCCN2CCN(C(C)C)CC2)cc(F)c2c(-c3ccc(O)c(Cl)c3)nc3[nH]nc(C)c3c12 [Example 216, 2-chloro-4-[6-fluoro-1-methyl-8-({2-[4-(1-methylethyl)piperazin-1-yl]ethyl}oxy)-9-(methyloxy)-3H-pyrazolo[3,4-c]isoquinolin-5-yl]phenol]	≤ 99 nM
COc1c(OCCN2C3CCC2CC(N)C3)cc(F)c2c(-c3ccc(O)c(Cl)c3)nc3[nH]nc(C)c3c12 (stereo not drawn) [Example 217, 4-[8-{[2-(3-amino-8-azabicyclo[3.2.1]oct-8-yl)ethyl]oxy}-6-fluoro-1-methyl-9-(methyloxy)-3H-pyrazolo[3,4-c]isoquinolin-5-yl]-2-chlorophenol]	≤ 99 nM
CCN1CCC(CCOc2cc(F)c3c(-c4ccc(O)c(Cl)c4)nc4[nH]nc(C)c4c3c2OC)CC1 [Example 218, 2-chloro-4-[8-{[2-(1-ethylpiperidin-4-yl)ethyl]oxy}-6-fluoro-1-methyl-9-(methyloxy)-3H-pyrazolo[3,4-c]isoquinolin-5-yl]phenol]	≤ 99 nM
